Reference: patent US20220380319A1 (Bial - R&D Investments, S.A., priority 2019, published 2022)
Values after ≈ are worked out from the molar mass of the structure shown.

Key:
acid ceramidase = target: T1, acid ceramidase (Homo sapiens, UniProt Q13510); test: Acid ceramidase inhibition, biochemical fluorescent assay with cell lysates overexpressing acid ceramidase, substrate Rbm14-12; settings: substrate Rbm14-12 6.3 μM, pH 4.5
T1 construct: Cell lysates overexpressing acid ceramidase were used as the enzyme source; expressed in transfected cells
T1 sequence (Q13510 22-395): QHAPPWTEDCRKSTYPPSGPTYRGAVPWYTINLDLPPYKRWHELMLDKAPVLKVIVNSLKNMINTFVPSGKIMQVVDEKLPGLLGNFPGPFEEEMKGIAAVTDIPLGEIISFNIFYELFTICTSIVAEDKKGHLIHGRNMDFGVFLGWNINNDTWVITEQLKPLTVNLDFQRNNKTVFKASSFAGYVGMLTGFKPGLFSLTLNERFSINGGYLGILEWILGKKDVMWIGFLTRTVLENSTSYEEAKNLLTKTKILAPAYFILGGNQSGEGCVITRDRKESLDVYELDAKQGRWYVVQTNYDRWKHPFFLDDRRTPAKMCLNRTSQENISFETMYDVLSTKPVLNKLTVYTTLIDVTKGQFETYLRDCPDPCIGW
Summary of the method: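 Lysate of cells overexpressing acid ceramidase (10 μg protein) preincubated with compound dose series 1 hr at RT in 25 mM NaAC, 100 mM NaCl, pH 4.5, then reacted 1 hr with 6.3 μM Rbm14-12. Stopped with NaIO4/glycine buffer pH 10.6, fluorescence ex360/em446; IC50 by four-parameter fit.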

[1] = Compound solubility in water

IC50 (acid ceramidase) [µM] | solubility [1] [µg/mL] | Structure (SMILES)
0.2 to 1 | 1 (≈ 2.6 µM) | COc1nc2ccc(N3CCOCC3)cc2n1C(=O)NCC1(CC2CC2)CC1 [Example 229a, N-((1-(Cyclopropylmethyl)cyclopropyl)-methyl)-2-methoxy-6-morpholino-1H-benzo[d]imidazole-1-carboxamide]
< 0.2 | 9 (≈ 23.4 µM) | COc1nc2cc(N3CCOCC3)ccc2n1C(=O)NCC1(CC2CC2)CC1 [Example 229b, N-((1-(cyclopropylmethyl)cyclopropyl)methyl)-2-methoxy-5-morpholino-1H-benzo[d]imidazole-1-carboxamide]
0.2 to 1 | 26 (≈ 63 µM) | COc1nc2ccc(N3CCOCC3)cc2n1C(=O)NCCC1CC1C(F)(F)F (centres unmarked) [Example 230a, 2-Methoxy-6-morpholino-N-(2-(2-(trifluoromethyl)cyclopropyl)ethyl)-1H-benzo[d]imidazole-1-carboxamide]
0.2 to 1 | 32 (≈ 77.6 µM) | COc1nc2cc(N3CCOCC3)ccc2n1C(=O)NCCC1CC1C(F)(F)F (centres unmarked) [Example 230b, 2-methoxy-5-morpholino-N-(2-(2-(trifluoromethyl)cyclopropyl)-ethyl)-1H-benzo[d]imidazole-1-carboxamide]
0.2 to 1 | 14 (≈ 33.3 µM) | COc1nc2ccc(N3CCOCC3)cc2n1C(=O)NCC1CC1Cc1ccccc1 (centres unmarked) [Example 231a, N-((2-benzylcyclopropyl)methyl)-2-methoxy-6-morpholino-1H-benzo[d]imidazole-1-carboxamide]
< 0.2 | 13 (≈ 30.9 µM) | COc1nc2cc(N3CCOCC3)ccc2n1C(=O)NCC1CC1Cc1ccccc1 (centres unmarked) [Example 231b, N-((2-benzylcyclopropyl)methyl)-2-methoxy-5-morpholino-1H-benzo[d]imidazole-1-carboxamide]
> 1 | 25 (≈ 60.5 µM) | COc1nc2ccc(N3CCOCC3)cc2n1C(=O)NCCCc1ccc(F)nc1 [Example 232a, N-(3-(6-Fluoropyridin-3-yl)propyl)-2-methoxy-6-morpholino-1H-benzo[d]imidazole-1-carboxamide]
> 1 | 25 (≈ 60.5 µM) | COc1nc2cc(N3CCOCC3)ccc2n1C(=O)NCCCc1ccc(F)nc1 [Example 232b, N-(3-(6-fluoropyridin-3-yl)propyl)-2-methoxy-5-morpholino-1H-benzo[d]imidazole-1-carboxamide]
0.2 to 1 | 30 (≈ 74.6 µM) | COc1nc2ccc(N3CCOCC3)cc2n1C(=O)NCCCOC(F)(F)F [Example 233a, 2-Methoxy-6-morpholino-N-(3-(trifluoromethoxy)propyl)-1H-benzo[d]imidazole-1-carboxamide]
0.2 to 1 | 29 (≈ 72.1 µM) | COc1nc2cc(N3CCOCC3)ccc2n1C(=O)NCCCOC(F)(F)F [Example 233b, 2-methoxy-5-morpholino-N-(3-(trifluoromethoxy)propyl)-1H-benzo[d]imidazole-1-carboxamide]
< 0.2 | 1 (≈ 2.15 µM) | CC(C)C(=O)N1CCN(c2cccc3c2ncn3C(=O)NCCCC2(C(F)(F)F)CC2)CC1 [Example 234, 4-(4-iso-Butyrylpiperazin-1-yl)-N-(3-(1-(trifluoromethyl)cyclopropyl)propyl)-1H-benzo[d]imidazole-1-carboxamide]
< 0.2 | 20 (≈ 45.7 µM) | CC(=O)N1CCN(c2cccc3c2ncn3C(=O)NCCCC2(C(F)(F)F)CC2)CC1 [Example 235, 4-(4-Acetylpiperazin-1-yl)-N-(3-(1-(trifluoromethyl)cyclopropyl)propyl)-1H-benzo[d]imidazole-1-carboxamide]
< 0.2 | 18 (≈ 41.3 µM) | COc1nc2cc(N3CCN(C(C)=O)CC3)ccc2n1C(=O)NCCCc1ccccc1 [Example 236a, 5-(4-Acetylpiperazin-1-yl)-2-methoxy-N-(3-phenylpropyl)-1H-benzo[d]imidazole-1-carboxamide]
< 0.2 | 23 (≈ 52.8 µM) | COc1nc2ccc(N3CCN(C(C)=O)CC3)cc2n1C(=O)NCCCc1ccccc1 [Example 236b, 6-(4-acetylpiperazin-1-yl)-2-methoxy-N-(3-phenylpropyl)-1H-benzo[d]imidazole-1-carboxamide]
< 0.2 | 17 (≈ 42.1 µM) | O=C(NCCCc1ccccc1)n1cnc2c(N3CCN4CCCC4C3)cccc21 (centres unmarked) [Example 239, 4-(Hexahydropyrrolo[1,2-a]pyrazin-2(1H)-yl)-N-(3-phenylpropyl)-1H-benzo[d]imidazole-1-carboxamide]
< 0.2 | 30 (≈ 77 µM) | CN1C[C@@H]2C[C@H]1CN2c1cccc2c1ncn2C(=O)NCCCc1ccccc1 [Example 244, 4-((1S,4S)-5-Methyl-2,5-diazabicyclo[2.2.1]heptan-2-yl)-N-(3-phenylpropyl)-1H-benzo[d]imidazole-1-carboxamide]
< 0.2 | 29 (≈ 74.5 µM) | CN1C[C@H]2C[C@@H]1CN2c1cccc2c1ncn2C(=O)NCCCc1ccccc1 [Example 246, 4-((1R,4R)-5-Methyl-2,5-diazabicyclo[2.2.1]heptan-2-yl)-N-(3-phenylpropyl)-1H-benzo[d]imidazole-1-carboxamide]
< 0.2 | 28 (≈ 69.4 µM) | CN1CC2CCC1CN2c1cccc2c1ncn2C(=O)NCCCc1ccccc1 (centres unmarked) [Example 247, 4-(5-Methyl-2,5-diazabicyclo[2.2.2]octan-2-yl)-N-(3-phenylpropyl)-1H-benzo[d]imidazole-1-carboxamide]
< 0.2 | 1 (≈ 2.51 µM) | O=C(NCCCc1ccccc1)n1cnc2c(N3CCC(F)(F)CC3)cccc21 [Example 248, 4-(4,4-Difluoropiperidin-1-yl)-N-(3-phenylpropyl)-1H-benzo[d]imidazole-1-carboxamide]
< 0.2 | 12 (≈ 30.6 µM) | CCN1CCN(c2cccc3c2ncn3C(=O)NCCCc2ccccc2)CC1 [Example 249, 4-(4-Ethylpiperazin-1-yl)-N-(3-phenylpropyl)-1H-benzo[d]imidazole-1-carboxamide]
< 0.2 | 23 (≈ 57 µM) | CN1CCN(c2cccc3c2ncn3C(=O)NCCCc2ccccc2)CC12CC2 [Example 250, 4-(4-Methyl-4,7-diazaspiro[2.5]octan-7-yl)-N-(3-phenylpropyl)-1H-benzo[d]imidazole-1-carboxamide]
< 0.2 | 35 (≈ 80.9 µM) | CN1CC(N2CCN(c3cccc4c3ncn4C(=O)NCCCc3ccccc3)CC2)C1 [Example 251, 4-(4-(1-Methylazetidin-3-yl)piperazin-1-yl)-N-(3-phenylpropyl)-1H-benzo[d]imidazole-1-carboxamide]
< 0.2 | 1 (≈ 2.4 µM) | O=C1CN(c2cccc3c2ncn3C(=O)NCCCc2ccccc2)CCN1C1CC1 [Example 252, 4-(4-Cyclopropyl-3-oxopiperazin-1-yl)-N-(3-phenylpropyl)-1H-benzo[d]imidazole-1-carboxamide]

Structure (SMILES) | IC50 (acid ceramidase) [µM] | solubility [1] [µg/mL]
COc1nc2cc(N3[C@@H]4CC[C@H]3COC4)ccc2n1C(=O)NCCCc1ccccc1 [Example 237a, 5-((1R,5S)-3-Oxa-8-azabicyclo[3.2.1]octan-8-yl)-2-methoxy-N-(3-phenylpropyl)-1H-benzo[d]imidazole-1-carboxamide] | < 0.2 | 1 (≈ 2.38 µM)
COc1nc2ccc(N3[C@@H]4CC[C@H]3COC4)cc2n1C(=O)NCCCc1ccccc1 [Example 237b, 6-((1R,5S)-3-oxa-8-azabicyclo[3.2.1]octan-8-yl)-2-methoxy-N-(3-phenylpropyl)-1H-benzo[d]imidazole-1-carboxamide] | < 0.2 | 5 (≈ 11.9 µM)
COc1nc2ccc(N3CCC4(CC3)COC4)cc2n1C(=O)NCCCc1ccccc1 [Example 238a, 2-Methoxy-N-(3-phenylpropyl)-6-(2-oxa-7-azaspiro[3,5]nonan-7-yl)-1H-benzo[d]imidazole-1-carboxamide] | < 0.2 | 11 (≈ 25.3 µM)
COc1nc2cc(N3CCC4(CC3)COC4)ccc2n1C(=O)NCCCc1ccccc1 [Example 238b, 2-methoxy-N-(3-phenylpropyl)-5-(2-oxa-7-azaspiro[3.5]nonan-7-yl)-1H-benzo[d]-imidazole-1-carboxamide] | 0.2 to 1 | 12 (≈ 27.6 µM)
CN1[C@@H]2CC[C@H]1CN(c1cccc3c1ncn3C(=O)NCCCc1ccccc1)C2 [Example 240, 4-((1R,5S)-8-Methyl-3,8-diazabicyclo[3.2.1]octan-3-yl)-N-(3-phenylpropyl)-1H-benzo[d]imidazole-1-carboxamide] | 0.2 to 1 | 28 (≈ 69.4 µM)
CN1CC2CCC(C1)N2c1cccc2c1ncn2C(=O)NCCCc1ccccc1 [Example 241, 4-(3-Methyl-3,8-diazabicyclo[3.2.1]octan-8-yl)-N-(3-phenylpropyl)-1H-benzo[d]imidazole-1-carboxamide] | < 0.2 | 25 (≈ 62 µM)
CN1C2CC1CN(c1cccc3c1ncn3C(=O)NCCCc1ccccc1)C2 [Example 243, 4-(6-Methyl-3,6-diazabicyclo[3.1.1]heptan-3-yl)-N-(3-phenylpropyl)-1H-benzo[d]imidazole-1-carboxamide] | < 0.2 | 28 (≈ 71.9 µM)
CN1CC2CC(C1)N2c1cccc2c1ncn2C(=O)NCCCc1ccccc1 [Example 245, 4-(3-Methyl-3,6-diazabicyclo[3.1.1]heptan-6-yl)-N-(3-phenylpropyl)-1H-benzo[d]imidazole-1-carboxamide] | < 0.2 | 32 (≈ 82.2 µM)
